Experimental findings from the COVID Moonshot data (paper PMC7615835) are described below.

Values joined by “and” are separate entries in the source; they are usually repeats but may differ in a detail not shown here. Equal values may be shown once. Where only a bound is given, the exact number is not on record here.

A word on the IC50: it is the concentration that inhibits the measured activity by half. Higher therefore signals weaker potency.

The target in the experiment is SARS-CoV-2 Main Protease (SARS-CoV-2) (UniProt P0DTD1).
In the case of `COc1ccc2n[nH]c(NC(=O)Cc3cccc(Cl)c3)c2c1`, the IC50 was > 99.5 µM. In the case of `N#CC1(CS(=O)(=O)N2Cc3ccc(Cl)cc3[C@H](C(=O)Nc3cncc4ccccc34)C2)CCOCC1` (stereo in doubt), the IC50 was 0.06 µM and 0.0875 µM.

In turn, `O=C(Cc1cc(Cl)cc(Nc2cccc(Br)c2)c1)Nc1cncc2ccccc12` registered an IC50 of 2.07 µM.

With `N#CC1(CS(=O)(=O)N2Cc3ccc(Cl)cc3C3(CCN(c4cncc5ccc(F)cc45)C3=O)C2)CC1` (centres undefined), the IC50 is 0.828 µM. On to `O=C(Nc1cncc2c1CCCC2)[C@@H]1CNS(=O)(=O)c2ccc(Cl)cc21` (stereo in doubt), for which the IC50 is 0.205 µM. Take `NC(=O)C1Cc2ccccc2CN1CC(=O)N1CCN(c2ncccn2)CC1` (centres undefined): the half-maximal inhibitory concentration (IC50) is > 99.5 µM. As to `COc1ccc2c(NC(=O)Cc3cccc(Cl)c3)noc2c1`, the IC50 was > 99.5 µM. In the case of `O=C(N/N=c1\cc[nH]c2ccccc12)c1ccc2ncccc2c1`, the IC50 was > 99.5 µM. Then `O=C(Cc1cc(Cl)cc(Nc2cccc3ccc(O)cc23)c1)Nc1cncc2ccccc12`, with 3.2 µM; and `COc1ccccc1OCCNC(=O)c1cc(=O)cc[nH]1`, with > 99.5 µM; and `CC1NCCn2c(-c3nc(-c4cnc5cnccn45)no3)ccc21` (centres undefined), with > 99.5 µM. Then `N#CC1(CS(=O)(=O)N2Cc3ccc(Cl)cc3C3(CCN(c4cncc5ccc(Cl)cc45)C3=O)C2)CC1` (centres undefined), with 0.82 µM; and `O=C(COCC(=O)N1CCCC1)NC(C(=O)Nc1cncc2ccccc12)c1cccc(Cl)c1` (centres undefined), with 6.35 µM and 8.47 µM. The same measure for `Cc1ccncc1NC(=O)Cc1cc(Cl)cc(NC2CC2C(F)(F)F)c1` (centres undefined): 25.3 µM; for `CNC(=O)CN1CC(C)(C(=O)Nc2cncc3cc(Cl)ccc23)c2cc(Cl)ccc2S1(=O)=O` (centres undefined): 0.393 µM; for `COc1cccc(C(NC(=O)Cc2cccc(Cl)c2)c2nc3ccccc3[nH]2)c1` (centres undefined): > 99.5 µM. For `O=C(NCCc1cccc(F)c1)C(c1cccnc1)N(C(=O)c1cocn1)c1ccc2ncsc2c1` (centres undefined), the concentration for half-maximal inhibition (IC50) amounted to 60.5 µM. The same measure for `C=CC(=O)NCc1ccccc1S(=O)(=O)NC(C)(C)C`: > 99.5 µM; for `CCNC(=O)CN1CC(C(=O)Nc2cncc3cc(F)ccc23)c2cc(Cl)ccc2C1=O` (centres undefined): 0.161 µM; for `N#CC1(CS(=O)(=O)N2Cc3ccc(Cl)cc3C(C(=O)Nc3cncc4ccc(F)cc34)C2)CC1` (centres undefined): 0.137 µM. As for `O=C(Cc1cccc(Cl)c1)Nc1cncc2[nH]ccc12`, the IC50 came out at 6.19 µM. For the compound `CNC(=O)CN1CC(C)(C(=O)Nc2cncc3cc(S(C)(=O)=O)ccc23)c2cc(Cl)ccc2S1(=O)=O` (centres undefined), the IC50 was 0.131 µM and 0.189 µM. With `CC(=O)Nc1ccc2c(NC(=O)Cc3cccc(Cl)c3)cncc2c1`, the IC50 stood at 0.392 µM.

With `O=C(Cc1cc(Cl)cc(NCCc2ccc(C(F)(F)F)cc2)c1)Nc1cncc2ccccc12`, the IC50 was 5.57 µM.

Consider `N#Cc1ncc(Br)cn1`, for which the IC50 is > 99.5 µM. Then `CC1(CS(=O)(=O)N2Cc3ccc(Cl)cc3C3(CCN(c4cncc5ccccc45)C3=O)C2)CS(=O)(=O)C1` (centres undefined), with 0.144 µM; and `O=C(CCl)N1CCN(C(c2ccccc2)c2ccccc2)CC1`, with 1.98 µM; and `O=C(Cc1cc(Cl)cc(Nc2ncc(Br)c(C(F)(F)F)n2)c1)Nc1cncc2ccccc12`, with 1.84 µM. As for `CC(C)(C)c1ccc(N(C(=O)c2ccco2)C(C(=O)NCCc2cccc(F)c2)c2cc(=O)[nH]c3ccccc23)cc1` (centres undefined), the IC50 worked out at 2.28 µM. In the case of `O=C(Cc1cccnc1)Nc1cccc(OC2CC(=O)N2)c1` (centres undefined), the IC50 was 82.6 µM and 94.4 µM. The same measure for `O=C(Cc1cc(Cl)cc(Nc2ccc(OCc3ccccc3)cc2)c1)Nc1cncc2ccccc12`: 8.23 µM; for `CNC(=O)CN1CC(C)(C(=O)Nc2cncc3cccc(Cl)c23)c2cc(Cl)ccc2S1(=O)=O` (centres undefined): 1.16 µM. Regarding `O=C(CCl)N1CCN(Cc2cccs2)CC1`, the IC50 is 5.66 µM and 6.77 µM. On to `CC(C)(C#N)CS(=O)(=O)N1Cc2ccc(Cl)cc2C2(CCN(c3cncc4ccccc34)C2=O)C1` (centres undefined), for which the IC50 came to 0.448 µM. For the compound `COc1ccc(Cl)cc1N1C(=O)CN(Cc2cc(=O)[nH]c3ccccc23)C1=O`, the IC50 was > 99.5 µM.

`Nc1nn(C(=O)Cc2cccc(Cl)c2)c2ccccc12`: the IC50 is > 99.5 µM. With `CNC(=O)CN1CC2(CCN(c3cncc4ccccc34)C2=O)c2cc(Cl)ccc2S1(=O)=O` (centres undefined), the IC50 amounted to 0.275 µM. On to `O=C(Nc1cncc2ccccc12)C1c2cc(Cl)ccc2CCN1S(=O)(=O)C1CC1` (centres undefined), for which the half-inhibitory concentration (IC50) turned out to be 1.14 µM. For the compound `C=CC(=O)N1CCN(S(=O)(=O)c2cccc(F)c2)CC1`, the IC50 is > 99.5 µM. Regarding `CNC(=O)CN1CC(C(=O)Nc2cncc3ccc(C(C)(C)O)cc23)c2cc(Cl)ccc2C1=O` (centres undefined), the IC50 was found to be 0.384 µM. The compound `Cc1ccncc1NC(=O)Cc1cc(Cl)cc(C2COC2)c1` yielded a half-maximal inhibitory concentration (IC50) of 19.1 µM. Turning to `O=C(Cc1cc(Cl)cc(B(O)O)c1)Nc1cncc2ccccc12`, the 50% inhibitory concentration (IC50) is 4.74 µM. In turn, `O=C(NCCc1cccc(F)c1)C(c1cccnc1)N(C(=O)c1cnc[nH]1)c1ccc(C2COC2)cc1` (centres undefined) registered an IC50 of 22.7 µM. As for `Cc1sc2ncnc(N3CCc4c(ncn4C4CC4)C3)c2c1C`, the IC50 was > 99.5 µM. Then `O=C(Cc1cncc2ccccc12)Nc1cc(Cl)cc(OC2CCC(=O)N2)c1` (centres undefined), with 38.4 µM; and `CC1(C(=O)Nc2cncc3cccc(Cl)c23)CNS(=O)(=O)c2ccc(Cl)cc21` (centres undefined), with 1.87 µM. The same measure for `O=C(Cc1cc(Cl)cc(Nc2ccc(I)c(F)c2)c1)Nc1cncc2ccccc12`: 2.04 µM. With `O=C(CCl)N1CCN(Cc2ccsc2)CC1`, the IC50 was 3.27 µM and 3.74 µM. For `Cc1cccc(C)c1N(C(=O)CN1CCNCC1)c1cc(Cl)cc(CC(=O)Nc2cncc3ccccc23)c1`, the IC50 turned out to be 2.74 µM. `Cc1ccncc1NC(=O)Cc1cc(Cl)cc(OC2COC2)c1` displayed an IC50 of 16 µM. In turn, `O=C(Cc1cncc2ccccc12)Nc1cccc(Cl)c1` showed an IC50 of 6.47 µM.

In turn, `Cn1cnc(C(=O)N(c2ccc(C(C)(C)C)cc2)C(C(=O)NCCc2cccc(F)c2)c2cccnc2)n1` (centres undefined) displayed an IC50 of 74.2 µM.

Take `N#Cc1ncc(Cl)cn1`: the IC50 is > 99.5 µM.

Regarding `O=C(Cc1cc(Cl)cc(N2CCc3ccccc3[C@H]2c2ccccc2)c1)Nc1cncc2ccccc12` (stereo in doubt), the IC50 was found to be 2.78 µM. As to `N#Cc1ncc(F)cn1`, the IC50 was > 99.5 µM. `CC1CN(C(=O)c2cc(=O)[nH]c3ccccc23)CCN1c1cccc(Cl)c1` (centres undefined) came in with a concentration for half-maximal inhibition (IC50) of 14.7 µM. For `C=CC(=O)N1CCN(S(=O)(=O)c2cccs2)CC1`, the IC50 is > 99.5 µM. The same measure for `Cc1ccc(S(=O)(=O)NCC(=O)N2CCC(NS(N)(=O)=O)CC2)cc1`: > 99.5 µM; for `O=C(Nc1cncc2ccccc12)C1=CCCc2ccc(Cl)cc21`: 0.233 µM. `COC1(c2cccc(Cl)c2)CCN(c2cncc3ccccc23)C1=O` (centres undefined) displayed an IC50 of 0.467 µM. Then `Clc1ccc2c(c1)C1(CCO2)CCN(c2cncc3ccccc23)C1` (centres undefined), with > 99.5 µM. Regarding `O=C(Cc1cc(Cl)cc(Nc2ccccc2Oc2ccccc2)c1)Nc1cncc2ccccc12`, the IC50 was found to be 2.19 µM. The same measure for `CC(C)=CCC[C@@](C)(O)[C@H]1CC[C@]2(C)[C@@H]1[C@H](O)C[C@@H]1[C@@]3(C)CC[C@H](O[C@@H]4O[C@H](CO)[C@@H](O)[C@H](O)[C@H]4O)C(C)(C)[C@@H]3CC[C@]12C` (stereo in doubt): > 99.5 µM; for `CC(O)Cc1c(C(=O)N(c2ccc(C(C)(C)C)cc2)C(C(=O)NCCc2cccc(F)c2)c2cccnc2)[nH][nH]c1=O` (centres undefined): > 99.5 µM.

As to `C=CC(=O)N(c1ccc(C(C)(C)C)cc1)[C@@H](C(=O)NCCc1cccc(F)c1)c1cccnc1` (stereo in doubt), the 50% inhibitory concentration (IC50) stood at 86.4 µM. Compound `N[C@@H](Cc1ccc(O)cc1)C(=O)Nc1cc(Cl)cc(CC(=O)Nc2cncc3ccccc23)c1` (stereo in doubt) yielded an IC50 of 2.51 µM. The same measure for `O=C(Cc1cc(Cl)cc(Nc2cnc(Cl)c(Br)c2)c1)Nc1cncc2ccccc12`: 3.08 µM; for `COCc1ccc(N(C(=O)c2cnc[nH]2)C(C(=O)NCCc2cccc(F)c2)c2cccnc2)cc1` (centres undefined): 62.9 µM.

For `CC(C)(C)c1ccc(N(C(=O)c2scnc2Cl)C(C(=O)NCCc2cccc(F)c2)c2cccnc2)cc1` (centres undefined), the IC50 is > 99.5 µM. The same measure for `CN(Cc1cccc(Cl)c1)C(=O)Cn1nnc2ccccc21`: > 99.5 µM. For `O=C(CC1(C(=O)Nc2cncc3ccccc23)CCOc2ccc(Cl)cc21)N1CCC2CS(=O)(=O)CC2C1` (centres undefined), the half-inhibitory concentration (IC50) worked out at 1.67 µM.

Take `Cn1cc(C(C(=O)NCCc2cccc(F)c2)N(C(=O)c2cocn2)c2ccc(C(C)(C)C)cc2)ccc1=O` (centres undefined): the IC50 was > 99.5 µM. As to `N#CC1(CS(=O)(=O)N2Cc3ccc(Cl)cc3C3(CCN(c4cncc5ccc(C(F)F)cc45)C3=O)C2)CC1` (centres undefined), the IC50 is 0.354 µM. In the case of `O=C(CCl)N1CCCN(S(=O)(=O)c2cccc(F)c2)CC1`, the IC50 turned out to be 17.2 µM. The same measure for `O=C(Cc1cc(Cl)cc(NC2CCN(Cc3ccccc3)CC2)c1)Nc1cncc2ccccc12`: 5.93 µM; for `O=C(Cc1cc(Cl)cc(Nc2ncc(F)cc2Br)c1)Nc1cncc2ccccc12`: 1.84 µM; for `C[C@H](N)C(=O)N[C@@H](CCC(N)=O)C(=O)O` (stereo in doubt): > 99 µM.

Turning to `NS(=O)(=O)NCCNS(=O)(=O)c1ccccc1[N+](=O)[O-]`, the half-inhibitory concentration (IC50) was > 99.5 µM.

Regarding `N#Cc1cccc(NC(=O)Nc2c[nH]c3ncccc23)c1`, the IC50 worked out at 63.6 µM. For the compound `O=C(Nc1cncc2ccccc12)C1CCOc2c(OCc3cccnc3)cc(Cl)cc21` (centres undefined), the concentration for half-maximal inhibition (IC50) is 24.9 µM and > 9.95 µM. `O=C(Nc1cncc2ccccc12)C1CN(C(=O)c2cnco2)Cc2ccc(Cl)cc21` (centres undefined) showed an IC50 of 1.07 µM. `Cc1cccc2ncc(NC(=O)Cc3cccc(Cl)c3)n12` showed an IC50 of 5.54 µM. On to `Cn1c(NCc2cn3ccnc3s2)nc2ccccc21`, for which the IC50 is > 99.5 µM.

As for `Cc1ccncc1NC(=O)N(CCC1CCCCC1)c1cc(Cl)cc(OC(C)C)c1`, the IC50 stood at 24.6 µM. Consider `COc1ccccc1NCCNC(=O)c1cc(=O)[nH]c2ccccc12`, for which the IC50 was > 99.5 µM. `CN(C)S(=O)(=O)NCC1(C(=O)Nc2cncc3ccccc23)CCOc2ccc(Cl)cc21` (centres undefined) came in with a concentration for half-maximal inhibition (IC50) of 2.73 µM.

As for `O=c1[nH]c2ccc(-c3csc(NCc4ccc(F)cc4)n3)cc2o1`, the IC50 was > 99.5 µM. On to `O=C(CCl)N1CCN(S(=O)(=O)c2c(F)cccc2F)CC1`, for which the IC50 was 3.43 µM and 3.14 µM. `N#Cc1cccc(CN2CCN(C(=O)CCl)CC2)c1`: the half-inhibitory concentration (IC50) was 19.7 µM.
